Experimental data as given in patent US12319655B2, “RAF kinase inhibitors and methods of use thereof” (Deciphera Pharmaceuticals, LLC, priority 2021, dated 2025).
Where two headings read alike, the source gives them in different places.

Columns and labels:
[1] = biological target: B-Raf kinase (SEQ. ID NO: 2) (Homo sapiens (Human), UniProt P15056); experiment: Biochemical Assay for B-Raf (1); conditions: Table J
Outline: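 IC50 derived by four-parameter sigmoidal fit of percent inhibition, normalised to uninhibited and reference-inhibitor controls, using reaction rates over 4–5 h. Coupled spectrophotometric readout (NADH loss at 340 nm, 6 h, 30° C.); 1 mM ATP, 30.1 nM MEK, 0.13 nM B-Raf, pH 7.5 Tris buffer, 1% DMSO.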

[2] = tested on: Miapaca-2 cells; experiment: MiaPaca-2 Cell Proliferation Assay (1); format: cell-based; conditions: Homo sapiens, MIA PaCa-2, single agent, read-out: MiaPaca2 (1) IC50
Outline: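 Resazurin was added after compound exposure and incubated 5-6 h, then fluorescence read at 540 nm excitation and 600 nm emission to give IC50.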

[3] = biological target: B-Raf (V600E) (SEQ. ID NO: 4) kinase (Homo sapiens (Human), UniProt P15056, V600E); experiment: Biochemical Assay for B-Raf (V600E) (1); conditions: Table J, BRAF V600E
Outline: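 Serially diluted compounds tested against 0.03 nM enzyme with 30.1 nM MEK substrate and 1 mM ATP (Tris pH 7.5, 15 mM MgCl2), ATP use coupled to NADH loss via PK/LDH. A340 monitored continuously 6 h, 30 °C; IC50 fitted (four-parameter) from the 3–4 h rate versus no-compound and known-inhibitor controls.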

[4] = tested on: H2405 cells; experiment: H2405 Cell Proliferation Assay (1); format: cell-based; conditions: Homo sapiens, NCI-H2405
Outline: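 Viability was read by resazurin reduction (ex 540 nm, em 600 nm; 5-6 h with 40 μL of 440 μM stock) after 67-72 h compound exposure at 37 °C.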

[5] = assay version (1), read-out: BRAF (1) IC50
[6] = assay version (1), read-out: BRAF VE (1) IC50
[7] = biochemical assay (1), read-out: BRAF (1)
[8] = biochemical assay (1), read-out: BRAF VE (1)

Sequence of B-Raf kinase (SEQ. ID NO: 2) (P15056 416-766): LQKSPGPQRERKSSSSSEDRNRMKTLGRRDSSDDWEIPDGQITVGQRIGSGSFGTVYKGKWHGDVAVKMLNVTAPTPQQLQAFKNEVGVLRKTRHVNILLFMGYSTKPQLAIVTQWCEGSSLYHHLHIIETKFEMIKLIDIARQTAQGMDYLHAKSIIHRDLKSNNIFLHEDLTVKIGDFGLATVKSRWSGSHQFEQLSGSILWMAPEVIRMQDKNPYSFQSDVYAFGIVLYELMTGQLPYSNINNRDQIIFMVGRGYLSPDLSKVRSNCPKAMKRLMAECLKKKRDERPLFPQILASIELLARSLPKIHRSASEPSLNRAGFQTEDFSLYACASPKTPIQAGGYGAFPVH
Sequence of B-Raf (V600E) (SEQ. ID NO: 4) kinase (P15056 416-766 V600E): as the sequence (P15056 416-766) above, with V185E counted along it

Compound	IC50 [1, 5] [nM]	IC50 [2] [nM]	IC50 [3, 6] [nM]	IC50 [4] [nM]	IC50 [1, 7] [nM]	IC50 [3, 8] [nM]
CC(=O)Nc1cc(-c2cc(-c3cc(NC(=O)c4ccnc(C(F)(F)F)c4)ccc3C)nc(N(C)C)n2)ccn1 [Example 41, N-(3-(6-(2-acetamidopyridin-4-yl)-2-(dimethylamino)pyrimidin-4-yl)-4-methylphenyl)-2-(trifluoromethyl)isonicotinamide]	≤ 100	1000 to 10000	≤ 100	≤ 100		
CNC(=O)c1cc(-c2cc(-c3cc(NC(=O)c4ccnc(C(F)(F)F)c4)cnc3C)ccn2)ccn1 [Example 42]	100 to 500	1000 to 10000	≤ 100	500 to 1000		
CNC(=O)c1cc(-c2cc(-c3cc(NC(=O)c4ccnc(C(F)F)c4)ccc3C)ccn2)ccn1 [Example 48]	≤ 100	1000 to 10000	≤ 100	100 to 500		
CNC(=O)c1cc(-c2cc(-c3cc(NC(=O)c4ccnc(C(C)(C)C#N)c4)ccc3C)ccn2)ccn1 [Example 50]	≤ 100	1000 to 10000	≤ 100	≤ 100		
CNC(=O)c1cc(-c2cc(-c3cc(NC(=O)c4cccc(C(F)(F)F)c4)cnc3C)ccn2)ccn1 [Example 52]	100 to 500	1000 to 10000	≤ 100	≤ 100		
Cc1ccc(NC(=O)c2ccnc(C(F)(F)F)c2)cc1-c1ccnc(-c2ccnc(NC(=O)C3CC3)c2)c1 [Example 54]	≤ 100	1000 to 10000	≤ 100	≤ 100		
Cc1ccc(NC(=O)c2ccnc(C(C)(C)C#N)c2)cc1-c1ccnc(-c2ccnc(N)c2)c1 [Example 56]	≤ 100	1000 to 10000	≤ 100	500 to 1000		
CCOc1ncc(-c2cc(NC(=O)c3ccnc(C(F)(F)F)c3)ccc2C)cc1-c1ccnc(NC(C)=O)c1 [Example 68]	≤ 100	1000 to 10000	≤ 100	100 to 500		
CCOc1ncc(-c2cc(NC(=O)c3ccnc(C(F)(F)F)c3)ccc2C)cc1-c1ccnc(C(=O)NC)c1 [Example 69]	100 to 500	1000 to 10000	≤ 100	100 to 500		
CCOc1ncc(-c2cc(NC(=O)c3ccnc(C(F)(F)F)c3)ccc2C)cc1-c1ccnc(NC(=O)C2CC2)c1 [Example 71]	100 to 500	1000 to 10000	≤ 100	100 to 500		
CNC(=O)c1cc(-c2cc(-c3cc(C(=O)Nc4ccnc(C(C)(C)C#N)c4)ccc3C)ccn2)ccn1 [Example 74]	500 to 1000	1000 to 10000	≤ 100	100 to 500		
Cc1ccc(NC(=O)c2ccnc(C(C)(C)C#N)c2)cc1-c1cccc(-c2cc(NC(=O)C3CC3)ncn2)c1 [Example 77]	≤ 100	1000 to 10000	≤ 100	≤ 100		
Cc1ccc(NC(=O)c2ccnc(C(F)(F)F)c2)cc1-c1cccc(-c2cc(NC(=O)C3CC3)ncn2)c1 [Example 80]	≤ 100	1000 to 10000	≤ 100	≤ 100		
Cc1ccc(NC(=O)c2ccnc(C(C)(C)C#N)c2)cc1-c1ccnc(-c2ccnc(N)c2)n1 [Example 82]	≤ 100	1000 to 10000	≤ 100	500 to 1000		
CNC(=O)c1cc(-c2cc(-c3cc(NC(=O)c4ccnc(C(F)(F)F)c4)ccc3C)ncn2)ccn1 [Example 85]	≤ 100	1000 to 10000	≤ 100	100 to 500		
CNC(=O)c1cc(-c2cncc(-c3cc(NC(=O)c4ccnc(C(C)(C)C#N)c4)ccc3C)n2)ccn1 [Example 86]	100 to 500	1000 to 10000	≤ 100	≤ 100		
CNC(=O)c1cc(-c2cncc(-c3cc(NC(=O)c4ccnc(C(C)(C)F)c4)ccc3C)c2)ncn1 [Example 379]		1000 to 10000		100 to 500	100 to 500	≤ 100
COC(=O)Nc1cc(-c2cncc(-c3cc(NC(=O)c4ccnc(C(C)(C)F)c4)c(F)cc3C)c2)ccn1 [Example 384]		1000 to 10000		100 to 500	≤ 100	≤ 100
Cc1ncc(NC(=O)c2ccnc(C(C)(C)C#N)c2)cc1-c1cccc(-c2ncnn3cccc23)c1 [Example 385]				1000 to 10000	100 to 500	≤ 100
COC(=O)Nc1cc(-c2cc(-c3cc(NC(=O)c4ccnc(C(C)(C)F)c4)c(F)cc3C)cc(C)n2)ccn1 [Example 386]				500 to 1000	100 to 500	≤ 100
Cc1ccc(NC(=O)[C@H]2CCO[C@@H](C(C)C)C2)cc1-c1cc(-c2ccnc(NC(=O)C3CC3)c2)cnn1 [Example 388]				1000 to 10000	≤ 100	100 to 500

Results, then the compound that gave them:

IC50 [1, 5] [nM]	IC50 [2] [nM]	IC50 [3, 6] [nM]	IC50 [4] [nM]	IC50 [1, 7] [nM]	IC50 [3, 8] [nM]	Compound
			1000 to 10000	≤ 100	100 to 500	Cc1ccc(NC(=O)[C@H]2CCO[C@H](C(C)C)C2)cc1-c1cc(-c2ccnc(NC(=O)C3CC3)c2)cnn1 [Example 389]
	1000 to 10000		500 to 1000	≤ 100	≤ 100	COC(=O)Nc1cc(-c2nccc(-c3cc(NC(=O)c4ccnc(C(C)(C)F)c4)ccc3C)n2)ccn1 [Example 391]
			1000 to 10000	500 to 1000	1000 to 10000	CNC(=O)c1cc(-c2ccnc(-c3cc(NC(=O)CCC4(F)CC4)ccc3C)c2)ccn1 [Example 392]
	1000 to 10000		100 to 500	≤ 100	≤ 100	CNC(=O)c1cc(-c2cncc(-c3cc(NC(=O)c4ccnc(C5(C#N)CC5)c4)ccc3C)c2)ncn1 [Example 393]
	100 to 500		≤ 100	≤ 100	≤ 100	Cc1ccc(NC(=O)c2ccnc(C(C)(C)F)c2)cc1-c1cncc(-c2cc(NC(=O)C3CC3)ncn2)c1 [Example 394]
	100 to 500		≤ 100	≤ 100	≤ 100	Cc1ccc(NC(=O)c2ccnc(C3(C#N)CC3)c2)cc1-c1cncc(-c2cc(NC(=O)C3CC3)ncn2)c1 [Example 395]
	1000 to 10000		≤ 100	≤ 100	≤ 100	Cc1ccc(NC(=O)c2ccnc(C3CC3)c2)cc1-c1cncc(-c2cc(NC(=O)C3CC3)ncn2)c1 [Example 396]
	100 to 500		≤ 100	≤ 100	≤ 100	Cc1ccc(NC(=O)c2ccnc(C(F)(F)F)c2)cc1-c1cncc(-c2cc(NC(=O)C3CC3)ncn2)c1 [Example 397]
	500 to 1000		≤ 100	≤ 100	≤ 100	Cc1cc(F)c(NC(=O)c2ccnc(C3CC3)c2)cc1-c1cncc(-c2cc(NC(=O)C3CC3)ncn2)c1 [Example 398]
			≤ 100	≤ 100	≤ 100	Cc1cc(F)c(NC(=O)c2ccnc(C(C)(C)F)c2)cc1-c1cncc(-c2ccnc(NC(=O)C3CC3)c2)c1 [Example 399]
			1000 to 10000	≤ 100	100 to 500	Cc1ccc(NC(=O)c2ccnc(C(C)(C)F)c2)cc1-c1cc(-c2ccnc3[nH]ncc23)cnn1 [Example 400]
	1000 to 10000		100 to 500	≤ 100	≤ 100	COC(=O)Nc1cc(-c2cc(-c3cc(NC(=O)c4ccnc(C(C)(C)F)c4)ccc3C)cc(OCCO)n2)ccn1 [Example 401]
			500 to 1000	≤ 100	≤ 100	COC(=O)Nc1cc(-c2cccc(-c3cc(NC(=O)c4ccnc(C(C)(C)F)c4)cnc3C)c2)ccn1 [Example 402]
			100 to 500	≤ 100	≤ 100	COC(=O)Nc1cc(-c2ccnc(-c3cc(NC(=O)c4ccnc(C(C)(C)F)c4)ccc3C)n2)ccn1 [Example 403]
